Data on 26 molecules can be found in US11643416B2, “Substituted 1′,2′-dihydro-3′H-spiro[cyclohexane-1,4′-pyrimido[5′,4′:4,5]pyrrolo[2,1-c][1,2,4]triazin]-3′-ones as cyclin-dependent kinase inhibitors” (G1 Therapeutics, Inc., priority 2020, dated 2023).

The target of this test is CDK5 (Homo sapiens (Human), UniProt Q00535). In words: CDK5 kinase assay (Nanosyn, Caliper microfluidic). It is filed as biochemical. The following applies: ATP at Km; 12-point dose-response. On the procedure:
Selected compounds disclosed herein were tested in kinase assays by Nanosyn (Santa Clara, Calif.) to determine their inhibitory effect on these CDKs. The assays were performed using microfluidic kinase detection technology (Caliper Assay Platform). The compounds were tested in 12-point dose-response format in singlicate at Km for ATP.

For orientation: IC50 means the concentration needed to halve the response being measured.

SMILES strings stand for the structures.

CDK5, sequence (Q00535 whole entry): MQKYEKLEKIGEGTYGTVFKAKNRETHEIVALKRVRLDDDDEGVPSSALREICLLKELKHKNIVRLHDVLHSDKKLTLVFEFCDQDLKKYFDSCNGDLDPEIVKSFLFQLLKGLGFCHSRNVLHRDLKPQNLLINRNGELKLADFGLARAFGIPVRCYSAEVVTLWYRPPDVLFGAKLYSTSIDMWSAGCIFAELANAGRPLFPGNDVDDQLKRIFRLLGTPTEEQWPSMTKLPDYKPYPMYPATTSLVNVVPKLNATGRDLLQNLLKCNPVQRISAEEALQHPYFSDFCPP
CDK5, sequence (Q15078 whole entry partner): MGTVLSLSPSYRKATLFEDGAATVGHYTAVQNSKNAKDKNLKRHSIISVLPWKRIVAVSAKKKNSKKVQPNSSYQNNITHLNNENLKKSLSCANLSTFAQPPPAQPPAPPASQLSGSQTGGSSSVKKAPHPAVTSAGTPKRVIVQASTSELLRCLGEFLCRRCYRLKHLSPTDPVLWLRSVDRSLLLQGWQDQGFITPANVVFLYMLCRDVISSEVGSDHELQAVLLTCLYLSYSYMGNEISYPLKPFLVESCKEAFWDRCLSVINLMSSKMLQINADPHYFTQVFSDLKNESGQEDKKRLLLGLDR

The molecule `CN(C)C(=O)c1ccc(Nc2ncc3cc4n(c3n2)C2(CCCCC2)C(=O)NN4)cc1` [Compound 62, N,N-dimethyl-4-((3′-oxo-2′,3′-dihydro-1′H-spiro[cyclohexane-1,4′-pyrimido[5′,4′:4,5]pyrrolo[2,1-c][1,2,4]triazin]-7′-yl)amino)benzamide] gave an IC50 of 131 nM. That is a sub-micromolar value. The result for `CN1CCN(S(=O)(=O)c2ccc(Nc3ncc4cc5n(c4n3)C3(CCCCC3)C(=O)NN5)cc2)CC1` [Compound 49, 7′-((4-((4-methylpiperazin-1-yl)sulfonyl)phenyl)amino)-1′,2′-dihydro-3′H-spiro[cyclohexane-1,4′-pyrimido[5′,4′:4,5]pyrrolo[2,1-c][1,2,4]triazin]-3′-one] reads 105 nM; that for `O=C(c1ccc(Nc2ncc3cc4n(c3n2)C2(CCCCC2)C(=O)NN4)cc1)N1CCNCC1` [Compound 61, 7′-((4-(piperazine-1-carbonyl)phenyl)amino)-1′,2′-dihydro-3′H-spiro[cyclohexane-1,4′-pyrimido[5′,4′:4,5]pyrrolo[2,1-c][1,2,4]triazin]-3′-one], 72 nM; that for `NS(=O)(=O)c1ccc(Nc2ncc3cc4n(c3n2)C2(CCCCC2)C(=O)NN4)cc1` [Compound 3, 4-((3′-oxo-2′,3′-dihydro-1′H-spiro[cyclohexane-1,4′-pyrimido[5′,4′:4,5]pyrrolo[2,1-c][1,2,4]triazin]-7′-yl)amino)benzenesulfonamide], 17 nM.

Molecule `CN1CCN(S(=O)(=O)c2ccc(Nc3ncc4cc5n(c4n3)C3(CCCCC3)CC(=O)N5)cc2)CC1` [Compound 51, 2′-((4-((4-methylpiperazin-1-yl)sulfonyl)phenyl)amino)-6′H-spiro[cyclohexane-1,9′-pyrrolo[1,5-a:2,3-d′]dipyrimidin]-7′(8′H)-one] had an IC50 of 7 nM. In turn, `O=C1NCC2(CCCCC2)n2c1cc1cnc(Nc3ccc(C(=O)N4CCNCC4)cc3)nc12` [Compound 55, 2′-((4-(piperazine-1-carbonyl)phenyl)amino)-7′,8′-dihydro-6′H-spiro[cyclohexane-1,9′-pyrazino[1′,2′:1,5]pyrrolo[2,3-d]pyrimidin]-6′-one] showed a 50% inhibitory concentration (IC50) of 1 nM. As for `NC(=O)c1ccc(Nc2ncc3cc4n(c3n2)C2(CCCCC2)C(=O)NN4)cc1` [Compound 63, 4-((3′-oxo-2′,3′-dihydro-1′H-spiro[cyclohexane-1,4′-pyrimido[5′,4′:4,5]pyrrolo[2,1-c][1,2,4]triazin]-7′-yl)amino)benzamide], the figure is 78 nM; as for `NS(=O)(=O)c1ccc(Nc2ncc3cc4n(c3n2)C2(CCCCC2)C(=O)NC4O)cc1` (centres unmarked) [Compound 1, 4-((6′-hydroxy-8′-oxo-7′,8′-dihydro-6′H-spiro[cyclohexane-1,9′-pyrazino[1′,2′:1,5]pyrrolo[2,3-d]pyrimidin]-2'-yl)amino)benzenesulfonamide], 0.68 nM; as for `NS(=O)(=O)c1ccc(Nc2ncc3cc4n(c3n2)C2(CCCCC2)CC(=O)N4)cc1` [Compound 2, 4-((7′-oxo-7′,8′-dihydro-6′H-spiro[cyclohexane-1,9′-pyrrolo[1,5-a:2,3-d′]dipyrimidin]-2′-yl)amino)benzenesulfonamide], 1.4 nM. The result for `CN1CCN(S(=O)(=O)c2ccc(Nc3ncc4cc5n(c4n3)C3(CCCCC3)C(=O)NC5O)cc2)CC1` (centres unmarked) [Compound 50, 6′-hydroxy-2′-((4-((4-methylpiperazin-1-yl)sulfonyl)phenyl)amino)-6′,7′-dihydro-8′H-spiro[cyclohexane-1,9′-pyrazino[1′,2′:1,5]pyrrolo[2,3-d]pyrimidin]-8′-one] reads 71 nM; that for `CN1NC(=O)C2(CCCCC2)n2c1cc1cnc(Nc3ccc(S(N)(=O)=O)cc3)nc12` [Compound 12, 4-((1′-methyl-3′-oxo-2′,3′-dihydro-1′H-spiro[cyclohexane-1,4′-pyrimido[5′,4′:4,5]pyrrolo[2,1-c][1,2,4]triazin]-7′-yl)amino)benzenesulfonamide], 120 nM; that for `NS(=O)(=O)c1ccc(Nc2ncc3cc4n(c3n2)C2(CCCCC2)C(=O)N[C@@H]4CF)cc1` [Compound 23, (S)-4-((6′-(fluoromethyl)-8′-oxo-7′,8′-dihydro-6′H-spiro[cyclohexane-1,9′-pyrazino[1′2′:1,5]pyrrolo[2,3-d]pyrimidin]-2′-yl)amino)benzenesulfonamide], 12 nM. Consider `CC1=NN(C)c2cc3cnc(Nc4ccc(S(N)(=O)=O)cc4)nc3n2C12CCCCC2` [Compound 46, 4-((1′,3′-dimethyl-1′H-spiro[cyclohexane-1,4′-pyrimido[5′,4′:4,5]pyrrolo[2,1-c][1,2,4]triazin]-7′-yl)amino)benzenesulfonamide], for which half-maximal inhibition (IC50) was put at 11 nM. `O=C(c1ccc(Nc2ncc3cc4n(c3n2)C2(CCCCC2)C(=O)NN4)cc1)N1CCOCC1` [Compound 74, 7′-((4-(morpholine-4-carbonyl)phenyl)amino)-1′,2′-dihydro-3′H-spiro[cyclohexane-1,4′-pyrimido[5′,4′:4,5]pyrrolo[2,1-c][1,2,4]triazin]-3′-one] yielded an IC50 of 92 nM. The molecule `CC1C(=O)Nc2cc3cnc(Nc4ccc(S(N)(=O)=O)cc4)nc3n2C12CCCCC2` (centres unmarked) [Compound 42, 4-((8′-methyl-7′-oxo-7′,8′-dihydro-6′H-spiro[cyclohexane-1,9′-pyrrolo[1,5-a:2,3-d′]dipyrimidin]-2′-yl)amino)benzenesulfonamide] displayed a half-inhibitory concentration (IC50) of 2 nM. Molecule `CNC(=O)c1ccc(Nc2ncc3cc4n(c3n2)C2(CCCCC2)C(=O)NN4)cc1` [Compound 64, N-methyl-4-((3′-oxo-2′,3′-dihydro-1′H-spiro[cyclohexane-1,4′-pyrimido[5′,4′:4,5]pyrrolo[2,1-c][1,2,4]triazin]-7′-yl)amino)benzamide] gave an IC50 of 65 nM. Take `C[C@@H]1NC(=O)C2(CCCCC2)n2c1cc1cnc(Nc3ccc(S(N)(=O)=O)cc3)nc12` [Compound 19, (S)-4-((6′-methyl-8′-oxo-7′,8′-dihydro-6′H-spiro[cyclohexane-1,9′-pyrazino[1′,2′:1,5]pyrrolo[2,3-d]pyrimidin]-2′-yl)amino)benzenesulfonamide]: the 50% inhibitory concentration (IC50) worked out at 50 nM. In turn, `CC1C(=O)Nc2cc3cnc(Nc4ccc(S(=O)(=O)N5CCN(C)CC5)cc4)nc3n2C12CCCCC2` (centres unmarked) [Compound 59, 8′-methyl-2′-((4-((4-methylpiperazin-1-yl)sulfonyl)phenyl)amino)-6′H-spiro[cyclohexane-1,9′-pyrrolo[1,5-a:2,3-d′]dipyrimidin]-7′(8′H)-one] displayed an IC50 of 6 nM.

The molecule `CN1N=CC2(CCCCC2)n2c1cc1cnc(Nc3ccc(S(N)(=O)=O)cc3)nc12` [Compound 5, 4-((1′-methyl-1′H-spiro[cyclohexane-1,4′-pyrimido[5′,4′:4,5]pyrrolo[2,1-c][1,2,4]triazin]-7′-yl)amino)benzenesulfonamide] returned a half-maximal inhibitory concentration (IC50) of 30 nM.

On to `CC1=NNc2cc3cnc(Nc4ccc(S(N)(=O)=O)cc4)nc3n2C12CCCCC2` [Compound 45, 4-((3′-methyl-1′H-spiro[cyclohexane-1,4′-pyrimido[5′,4′:4,5]pyrrolo[2,1-c][1,2,4]triazin]-7′-yl)amino)benzenesulfonamide], for which half-maximal inhibition (IC50) required 48 nM. This IC50 lies about 1.6-fold higher than the previous one. `CC1C(=O)N(C)c2cc3cnc(Nc4ccc(S(N)(=O)=O)cc4)nc3n2C12CCCCC2` (centres unmarked) [Compound 43, 4-((6′,8′-dimethyl-7′-oxo-7′,8′-dihydro-6′H-spiro[cyclohexane-1,9′-pyrrolo[1,5-a:2,3-d′]dipyrimidin]-2′-yl)amino)benzenesulfonamide] returned a concentration for half-maximal inhibition (IC50) of 15 nM.

As for `NS(=O)(=O)c1ccc(Nc2ncc3cc4n(c3n2)C2(C=NN4)CCCCC2)cc1` [Compound 4, 4-((1′H-spiro[cyclohexane-1,4′-pyrimido[5′,4′:4,5]pyrrolo[2,1-c][1,2,4]triazin]-7′-yl)amino)benzenesulfonamide], inhibition was half-maximal at 6 nM (IC50). This IC50 lies about 2.5-fold lower than the previous one. Molecule `CN1CCN(C(=O)c2ccc(Nc3ncc4cc5n(c4n3)C3(CCCCC3)CC(=O)N5)cc2)CC1` [Compound 54, 2′-((4-(4-methylpiperazine-1-carbonyl)phenyl)amino)-6′H-spiro[cyclohexane-1,9′-pyrrolo[1,5-a:2,3-d′]dipyrimidin]-7′(8′H)-one] returned a concentration for half-maximal inhibition (IC50) of 3 nM. Against the preceding molecule, the IC50 is about 2-fold lower. Regarding `NS(=O)(=O)c1ccc(Nc2ncc3cc4n(c3n2)C2(CCCCC2)C(=O)N[C@H]4CF)cc1` [Compound 18, (R)-4-((6′-(fluoromethyl)-8′-oxo-7′,8′-dihydro-6′H-spiro[cyclohexane-1,9′-pyrazino[1′,2′:1,5]pyrrolo[2,3-d]pyrimidin]-2′-yl)amino)benzenesulfonamide], the IC50 turned out to be 16 nM. For `CN1CCN(C(=O)c2ccc(Nc3ncc4cc5n(c4n3)C3(CCCCC3)C(=O)NC5O)cc2)CC1` (centres unmarked) [Compound 53, 6′-hydroxy-2′-((4-(4-methylpiperazine-1-carbonyl)phenyl)amino)-6′,7′-dihydro-8′H-spiro[cyclohexane-1,9′-pyrazino[1′,2′:1,5]pyrrolo[2,3-d]pyrimidin]-8′-one], the IC50 was determined as 4 nM. In turn, `CN1CCN(C(=O)c2ccc(Nc3ncc4cc5n(c4n3)C3(CCCCC3)C(=O)NN5)cc2)CC1` [Compound 52, 7′-((4-(4-methylpiperazine-1-carbonyl)phenyl)amino)-1′,2′-dihydro-3′H-spiro[cyclohexane-1,4′-pyrimido[5′,4′:4,5]pyrrolo[2,1-c][1,2,4]triazin]-3′-one] showed an IC50 of 84 nM.
